Assay results: the supplement of paper PMC11451515

System: NOMO1
Assay: cell viability relative to DMSO control; higher = less cytotoxic
Settings: 48 h
Procedure, shortened: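 In 1536-well plates, 5 μl of leukemia cells were seeded per well: 500 cells/well for NOMO1 or SEM and 1000 cells/well for P12-Ichikawa. Each line had first been adapted for at least four passages in each medium. Library compounds in DMSO were pin-dosed at 11 threefold concentrations between 47 μM and 0.79 nM, and CellTiter-Glo One luminescence was read after 48 h at 37°C. Viability is a per-plate percentage relative to DMSO wells, with cell-free wells as background.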

[1] = HPLM + 10% dialyzed FBS, 0.000781 µM
[2] = HPLM + 10% dialyzed FBS, 0.00234 µM
[3] = HPLM + 10% dialyzed FBS, 0.00702 µM
[4] = HPLM + 10% dialyzed FBS, 0.0211 µM
[5] = HPLM + 10% dialyzed FBS, 0.0632 µM
[6] = HPLM + 10% dialyzed FBS, 0.19 µM
[7] = HPLM + 10% dialyzed FBS, 0.569 µM
[8] = HPLM + 10% dialyzed FBS, 1.71 µM
[9] = HPLM + 10% dialyzed FBS, 5.12 µM
[10] = HPLM + 10% dialyzed FBS, 15.4 µM
[11] = HPLM + 10% dialyzed FBS, 46.1 µM
[12] = RPMI 5 mM glucose + 10% FBS, 0.000781 µM
[13] = RPMI 5 mM glucose + 10% FBS, 0.00234 µM
[14] = RPMI 5 mM glucose + 10% FBS, 0.00702 µM
[15] = RPMI 5 mM glucose + 10% FBS, 0.0211 µM
[16] = RPMI 5 mM glucose + 10% FBS, 0.0632 µM
[17] = RPMI 5 mM glucose + 10% FBS, 0.19 µM
[18] = RPMI 5 mM glucose + 10% FBS, 0.569 µM
[19] = RPMI 5 mM glucose + 10% FBS, 1.71 µM
[20] = RPMI 5 mM glucose + 10% FBS, 5.12 µM
[21] = RPMI 5 mM glucose + 10% FBS, 15.4 µM
[22] = RPMI 5 mM glucose + 10% FBS, 46.1 µM
[23] = RPMI 5 mM glucose + 10% dialyzed FBS, 0.000781 µM
[24] = RPMI 5 mM glucose + 10% dialyzed FBS, 0.00234 µM
[25] = RPMI 5 mM glucose + 10% dialyzed FBS, 0.00702 µM
[26] = RPMI 5 mM glucose + 10% dialyzed FBS, 0.0211 µM
[27] = RPMI 5 mM glucose + 10% dialyzed FBS, 0.0632 µM
[28] = RPMI 5 mM glucose + 10% dialyzed FBS, 0.19 µM
[29] = RPMI 5 mM glucose + 10% dialyzed FBS, 0.569 µM
[30] = RPMI 5 mM glucose + 10% dialyzed FBS, 1.71 µM
[31] = RPMI 5 mM glucose + 10% dialyzed FBS, 5.12 µM
[32] = RPMI 5 mM glucose + 10% dialyzed FBS, 15.4 µM
[33] = RPMI 5 mM glucose + 10% dialyzed FBS, 46.1 µM

Row | SMILES | cell viability [1] [%] | cell viability [2] [%] | cell viability [3] [%] | cell viability [4] [%] | cell viability [5] [%] | cell viability [6] [%] | cell viability [7] [%] | cell viability [8] [%] | cell viability [9] [%] | cell viability [10] [%] | cell viability [11] [%] | cell viability [12] [%] | cell viability [13] [%] | cell viability [14] [%] | cell viability [15] [%] | cell viability [16] [%] | cell viability [17] [%] | cell viability [18] [%] | cell viability [19] [%] | cell viability [20] [%] | cell viability [21] [%] | cell viability [22] [%] | cell viability [23] [%] | cell viability [24] [%] | cell viability [25] [%] | cell viability [26] [%] | cell viability [27] [%] | cell viability [28] [%] | cell viability [29] [%] | cell viability [30] [%] | cell viability [31] [%] | cell viability [32] [%] | cell viability [33] [%]
1 | CCOC(=O)Nc1ccc(NCc2ccc(F)cc2)nc1N | 123 | 137 | 114 | 127 | 117 | 117 | 108 | 101 | 104 | 109 | 120 | 118 | 105 | 103 | 111 | 110 | 127 | 101 | 105 | 103 | 114 | 106 | 108 | 113 | 110 | 123 | 122 | 109 | 119 | 119 | 112 | 106 | 102
2 | OC1=CC2=C(C(=C1)O)C(=O)\C(=C(/O2)C3=CC(=C(O)C=C3)O)O | 97.5 | 104 | 102 | 112 | 125 | 117 | 116 | 99.7 | 118 | 110 | 109 | 98.1 | 105 | 115 | 90.8 | 110 | 108 | 106 | 110 | 95.4 | 90.5 | 97.9 | 98.2 | 98 | 109 | 107 | 104 | 118 | 110 | 104 | 107 | 106 | 102
3 | CC/1=C(\O)C(=O)\C=C2/C1=C/C=C3\[C@@]2(C)CC[C@@]4(C)[C@@H]5C[C@@](C)(CC[C@]5(C)CC[C@]34C)C(O)=O | 104 | 119 | 97.5 | 99.6 | 108 | 115 | 113 | 90 | 23.4 | 8.21 | 8.32 | 92.5 | 103 | 102 | 105 | 95 | 90.6 | 85.6 | 89.7 | 26.2 | 11 | 6.03 | 108 | 104 | 112 | 99.8 | 109 | 97.6 | 110 | 82.6 | 20.6 | 14.1 | 5.2
4 | COc1cc(N2CCC(N(C)C)CC2)ccc1Nc1ncc(Cl)c(Nc2ccccc2P(C)(C)=O)n1 |  |  |  |  |  |  |  |  |  |  |  | 123 | 116 | 130 | 118 | 124 | 115 | 111 | 102 | 21.3 | 23.8 | 23.2 | 115 | 110 | 128 | 117 | 123 | 124 | 107 | 94.7 | 31.4 | 21.3 | 27.6
5 | CCOC(=O)/C=C/[C@H](C[C@@H]1CCNC1=O)NC(=O)[C@@H](CC(=O)[C@@H](NC(=O)c1cc(C)on1)C(C)C)Cc1ccc(F)cc1 |  |  |  |  |  |  |  |  |  |  |  |  |  |  |  |  |  |  |  |  |  |  | 119 | 124 | 143 | 118 | 132 | 118 | 130 | 131 | 144 | 155 | 125
6 | OCc1ccc(-c2ccc(-c3ccc(CO)s3)o2)s1 | 124 | 121 | 138 | 147 | 124 | 114 | 122 | 107 | 118 | 108 | 96.2 |  |  |  |  |  |  |  |  |  |  |  |  |  |  |  |  |  |  |  |  |  | 
7 | COc1cc(CNC(=O)CCCC/C=C/C(C)C)ccc1O | 111 | 116 | 113 | 123 | 114 | 112 | 71.5 | 77 | 79.1 | 60.9 | 47.2 | 101 | 99.6 | 95 | 115 | 104 | 114 | 90.6 | 45.9 | 36.6 | 41.1 | 36.4 | 102 | 97.8 | 103 | 98.5 | 106 | 101 | 99.5 | 55.3 | 52 | 50.4 | 59.7
8 | CC(C)(O)c1cc2nc(-c3cnc(N)nc3)nc(N3CCOCC3)c2s1 |  |  |  |  |  |  |  |  |  |  |  | 123 | 121 | 107 | 121 | 110 | 104 | 104 | 88.7 | 76.6 | 63.1 | 67.5 | 121 | 125 | 114 | 105 | 98.2 | 85.8 | 83.3 | 60.8 | 53.4 | 46.8 | 51.8
9 | Cc1ncc([N+](=O)[O-])n1CC(C)O (stereo unspecified) | 96.1 | 100 | 117 | 114 | 119 | 110 | 111 | 116 | 117 | 120 | 108 | 100 | 123 | 106 | 106 | 113 | 118 | 132 | 117 | 117 | 105 | 113 | 101 | 107 | 95.3 | 96.4 | 113 | 116 | 110 | 110 | 115 | 115 | 101
